According to ChEMBL document CHEMBL1154198, “Chemical genetics of Plasmodium falciparum” (Nature, 2010):

How the values were obtained:
[1] = test system: Plasmodium falciparum; test: ST_JUDE: Plasmodium falciparum 3D7 EC50 (uM) as measured by SYBR green dye; format: functional, organism-based
[2] = test system: Plasmodium falciparum; test: ST_JUDE: Plasmodium falciparum K1 EC50 (uM) as measured by SYBR green dye; format: functional, organism-based

Compound	EC50 [1]	EC50 [2]
CCOc1cccc(CN2CCCC(C(=O)c3cccc(C(F)(F)F)c3)C2)c1O (stereo not given)	3.34 µM	1.09 µM
CC1(C)N=C(N)N=C(N)N1c1ccc(F)cc1	0.095 µM	2.31 µM
Cc1ccc(C(NC(=O)CC(C)C)c2ccc3cccnc3c2O)cc1 (stereo not given)	> 15 µM	> 15 µM
CC(C)CN1CCN(Cc2cc(Cl)ccc2O)CC1CCO (stereo not given)	> 15 µM	4.82 µM
Cc1ccc(C2Nn3c(nnc3-c3ccccc3)SC2C(=O)N2CCCCCC2)cc1 (stereo not given)	2.94 µM	3.91 µM
O=[N+]([O-])c1ccc(NC(c2ccccn2)c2ccc3cccnc3c2O)cc1 (stereo not given)	4.78 µM	2.28 µM
COCCn1/c(=N/C(=O)COc2ccccc2)sc2cc(OC)ccc21	> 15 µM	> 15 µM
O=C1C(Nc2cccc(F)c2)=C(N2CCCCC2)C(=O)c2ccccc21	0.261 µM	0.471 µM
CO/C(O)=C1\C(C)=NC2=C(C(=O)CC(c3ccccc3OC)C2)C1c1ccc([N+](=O)[O-])cc1 (stereo not given)	3.83 µM	> 15 µM
Cc1cc(N(C)C)nc(Nc2ccc(NS(=O)(=O)c3cc(C(C)C)ccc3C)cc2)n1	1.55 µM	3.35 µM
CC(=O)NC(c1ccc(Cl)cc1)c1ccc2cccnc2c1O (stereo not given)	1.93 µM	2.15 µM
Cc1ccc(Nc2nc(N)c3ccccc3n2)cc1C	1.33 µM	3.91 µM
Cc1ccc(NC(=O)C2c3ccccc3C(=O)N(CC(C)C)C2c2cccs2)nc1 (stereo not given)	1.32 µM	1.43 µM
O=C1c2ccccc2/C(=N/Nc2ccc([N+](=O)[O-])cc2)C1c1cc(Br)ccc1[N+](=O)[O-] (stereo not given)	6.75 µM	3.57 µM
CC(C)CC(C)N1CCC(n2nccc2NC(=O)Nc2ccccc2Cl)CC1 (stereo not given)	8.23 µM	> 15 µM
Cn1c(=N)n(CC(O)c2ccc(Cl)c(Cl)c2)c2ccccc21 (stereo not given)	2.3 µM	2.43 µM
COc1cc(/C=C/C(=O)Nc2cccc(Br)c2)cc(OC)c1OC	> 15 µM	> 15 µM
O=C(Cc1ccccc1)NC(c1ccc(Cl)cc1)c1c(O)ccc2ccccc12 (stereo not given)	> 15 µM	> 15 µM
CCCN1C(=O)c2[nH]nc(-c3c(C)cc(C)cc3O)c2C1c1cccc(OC)c1 (stereo not given)	5.09 µM	2.68 µM
CSc1cccc(NC(=O)N2CCC(CO)(Cc3ccccc3Cl)CC2)c1	> 15 µM	> 15 µM
Cc1cccc(-c2c3c(=O)n(C)c(=O)n(C)c3cn2-c2cc(Cl)ccc2O)c1	> 15 µM	> 15 µM
CCOc1ccc(/C=c2\sc3n(c2=O)CN(c2cccc(F)c2)CN=3)cc1	> 15 µM	> 15 µM

Compound	EC50 [1]	EC50 [2]
CN1c2ccccc2N(C)C1c1ccc(Sc2ccc(C3N(C)c4ccccc4N3C)o2)o1	> 15 µM	1.65 µM
CCC(=O)N1c2ccc(S(=O)(=O)CCC(=O)Nc3ccc(Br)c(C)c3)cc2CC1C (stereo not given)	> 15 µM	> 15 µM
C#CCN(CC=C)Cc1nc(-c2cc(OC)ccc2OC)oc1C	> 15 µM	> 15 µM
CCCCCC(O)(c1ccccc1)C(CN1CCOCC1)c1ccccc1 (stereo not given)	3.26 µM	2.04 µM
O=C(Cc1ccccc1)N1CCOc2c(cc(-c3csc4ccccc34)cc2OCCc2ccccn2)C1	1.63 µM	0.762 µM
O=C(N/N=c1/oc2ccc(Br)cc2cc1-c1nc2ccccc2[nH]1)c1ccncc1	4.71 µM	> 15 µM
Oc1ccc(Br)cc1CN1CCN(Cc2cccc(Cl)c2)CC1	1.79 µM	0.338 µM
O=C(Nc1ccc2oc(-c3ccccc3)nc2c1)C(Cl)(Cl)Cl	> 15 µM	4.52 µM
CCOc1ccc(-c2nonc2NC(=O)c2ccc(C)cc2)cc1OCC	> 15 µM	> 15 µM
COc1ccc2sc(N(Cc3cccnc3)C(=O)c3ccc(C#N)cc3)nc2c1	> 15 µM	> 15 µM
Oc1cccnc1NC(c1ccc(Cl)cc1)c1ccc2cccnc2c1O (stereo not given)	3.76 µM	5.59 µM
O=C1CC(O)(C(F)(F)C(F)(F)F)Oc2ccccc21 (stereo not given)	2.57 µM	2.48 µM
Cc1ccnc(NC(c2cccc(Cl)c2Cl)c2ccc3cccnc3c2O)c1 (stereo not given)	1.5 µM	1.67 µM
CCOc1ccc(N2C(N)=NC(N)=NC2(C)C)cc1	0.238 µM	> 15 µM
CC(=O)N(C1=C(NCCO)C(=O)c2ccccc2C1=O)c1cccc(Br)c1	0.0171 µM	0.0286 µM
COC(=O)c1sc2ccccc2c1NC(=O)c1cccc(Br)c1	> 15 µM	> 15 µM
CCOC(=O)C(=O)Oc1cc2oc(C(=O)OCC)c(-c3nc4ccccc4s3)c(=O)c2cc1CC	> 15 µM	> 15 µM
COc1cccc(NC(=O)C2c3ccccc3C(=O)N(C3CCCC3)C2c2cccs2)c1 (stereo not given)	0.45 µM	0.474 µM
COc1cc(/C=C/c2ccc3cccc(OC(C)=O)c3n2)cc(Cl)c1OC	> 15 µM	6.11 µM
CCc1cc(Br)ccc1NC(=O)Nc1ccc([N+](=O)[O-])cc1	> 15 µM	> 15 µM
COc1ccc(N2CCN(CC(O)COc3ccc(C)cc3C(C)(C)C)CC2)cc1 (stereo not given)	> 15 µM	> 15 µM
O=C(NC(c1cccc([N+](=O)[O-])c1)c1cc(Cl)c2cccnc2c1O)c1cccnc1 (stereo not given)	4.65 µM	2.73 µM

Compound	EC50 [1]	EC50 [2]
COC(=O)Oc1ccc2c(=O)c(Oc3ccc4ccccc4c3)c(C(F)(F)F)oc2c1	> 15 µM	> 15 µM
CC(C)(C)c1ccc(O)c(CN2CCN(c3ccccc3)CC2)c1	1.1 µM	0.51 µM
CCOc1cc(/C=C(\C#N)c2nn(CCO)c(N)c2C#N)cc(I)c1OC	> 15 µM	> 15 µM
CCN(CC)c1cc(C)c2cc(NC(=O)c3cccc(F)c3)ccc2n1	1.99 µM	8.08 µM
Cc1ccc(NC(=O)CSc2nncc(O)n2)cc1	4.88 µM	0.924 µM
Cc1ccc(-c2nc(-c3ccc(Cl)cc3)no2)cc1	> 15 µM	> 15 µM
Cc1cc(N2CCN(C)CC2)nc2ccc(NC(=O)c3cccc(N(C)C)c3)cc12	0.62 µM	6.32 µM
CCCOc1ccc(-c2nonc2NC(=O)c2cccc(OCC)c2)cc1OCCC	> 15 µM	0.444 µM
Cc1cccc(C2Sc3ccccc3N=C3C2=C(O)c2ccccc23)c1 (stereo not given)	1.89 µM	1.77 µM
O=C(Nc1cccc(C(F)(F)F)c1)Nc1ccc(Cl)c(Cl)c1	> 15 µM	0.738 µM
CC1CN(C(=O)c2ccc(I)cc2)CC(C)O1 (stereo not given)	2.73 µM	1.52 µM
Cc1ccc(CN2CCN(Cc3ccc(OCCO)cc3)CC2CCO)o1 (stereo not given)	> 15 µM	> 15 µM
Cc1cccc(CN2C(=O)/C(=C\c3ccc(C(=O)N4CCC(N5CCCCC5)CC4)cc3)Oc3ccccc32)c1	4.03 µM	> 15 µM
CCN(CC)CC/N=c1\cc(-c2ccc(OC)c(OC)c2)oc2ccc(Cl)cc12.[O-][Cl+3]([O-])([O-])O	0.543 µM	5.14 µM
COc1cccc(CNC(=O)C2c3ccccc3C(=O)N(CC(C)C)C2c2cccs2)c1 (stereo not given)	5.27 µM	4.13 µM
Cc1ccc(NC(=O)C2(c3ccc([N+](=O)[O-])cc3)CCCC2)cc1	> 15 µM	3.82 µM
COc1ccc(C2C(C(=O)Nc3ccc(OC)cc3OC)c3ccccc3C(=O)N2C)cc1 (stereo not given)	4.16 µM	4.82 µM
CCOC(=O)C1CCN(C(=O)CN(Cc2ccc(Cl)cc2)S(=O)(=O)c2ccc(C)cc2)CC1	> 15 µM	2.18 µM
CCCOc1cccc(C2c3c(-c4ccccc4O)n[nH]c3C(=O)N2CCCOCC)c1 (stereo not given)	> 15 µM	7.84 µM
CC(C)CC(=O)NC(NC(=S)Nc1cccc(Cl)c1)C(Cl)(Cl)Cl (stereo not given)	1.73 µM	2.5 µM
CCc1ccc(N(CC)C(=O)c2cc3cc4ccc(OC)cc4nc3o2)cc1	> 15 µM	> 15 µM
Cc1cccc(OCC(=O)Nc2cccc(-c3nnc(-c4ccccc4)o3)c2)c1	> 15 µM	> 15 µM

Compound	EC50 [1]	EC50 [2]
CN1CCN(c2ccc(-c3cccc(NC(=O)c4cccc(F)c4)c3)nn2)CC1	> 15 µM	> 15 µM
O=C(Nc1ccc(Cl)c(Cl)c1)c1ccc(-c2ccccc2)cc1	> 15 µM	> 15 µM
O=C(O)c1cccc(NC2=C(n3nnc4ccccc43)C(=O)c3ccccc3C2=O)c1	> 15 µM	4.19 µM
CC(C)COc1ccc(COC2C(C3COC(C)(C)O3)OC3OC(C)(C)OC32)cc1 (stereo not given)	7.79 µM	> 15 µM
Cc1ccc2c(c1)N(C)/C(=C/c1cccc[n+]1CCO)S2	1.78 µM	1.56 µM
CCOC(=O)N1CCC(NC(=O)Nc2cc(C(F)(F)F)cc(C(F)(F)F)c2)CC1	0.992 µM	1.29 µM
CC(C)(C)CNc1cc(N2CCN(C(=O)c3cccs3)CC2)ccc1[N+](=O)[O-]	4.53 µM	4.76 µM
Cc1cc(Br)ccc1OCCCCn1ccnc1	> 15 µM	> 15 µM
COc1ccc(N/C=C2/C(=O)N(c3ccc(OC)cc3)C(=O)c3ccccc32)cc1	> 15 µM	> 15 µM
CCOC(=O)c1sc(N2C(=O)C(O)=C(C(=O)c3ccc(Cl)cc3)C2c2ccccc2)nc1C (stereo not given)	> 15 µM	> 15 µM
COc1cc(CN(Cc2cccnc2)C(=O)c2[nH]c3ccc(Cl)cc3c2C)ccc1OC1CCOC1 (stereo not given)	> 15 µM	> 15 µM
COc1ccc(/C=C2\Oc3c(ccc(O)c3CN3CCCCC3)C2=O)cc1	1.63 µM	0.846 µM
Cc1ccc(S(=O)(=O)Nc2cc(Sc3nc[nH]n3)c(O)c3ccccc23)c(C)c1	3.67 µM	5.53 µM
CN(C)CCN(C)C(=O)c1cccc(OC2CCN(Cc3ccccc3O)CC2)c1	4.8 µM	5.14 µM
Cc1ccsc1CN(C(=O)COc1ccc(C(C)C)cc1)C1CCS(=O)(=O)C1 (stereo not given)	> 15 µM	> 15 µM
COc1ccc(C(=O)Nc2cccc(-c3nc4ccccc4s3)c2)cc1[N+](=O)[O-]	> 15 µM	> 15 µM
CCOc1ccccc1N1CCN(Cc2cc(Br)cc(Br)c2O)CC1	8.24 µM	3.78 µM
CCOC(=O)c1ccc(-n2[nH]c(-c3ccccc3)cc2=O)cc1	> 15 µM	8.96 µM
CCOc1ccccc1/C=C/C(=O)Nc1ccc2nc(N3CCN(C)CC3)cc(C)c2c1	0.437 µM	> 15 µM
